According to patent US6841567B1, “Cyclic substituted fused pyrrolocarbazoles and isoindolones” (Cephalon, Inc., priority 1999, dated 2005):
Values belong to the molecule of their own block, whether it stands above or below them.

How the values were obtained:
[1] = biological target: T1, VEGF receptor (human flk-1, KDR, VEGFR2) kinase domain (Homo sapiens, UniProt P35968); assay: Inhibition of vascular endothelial growth factor receptor kinase activity (ELISA); assay type: biochemical; conditions: for IC50: 40 μM ATP; for VEGF receptor kinase activity % Inh. @ 300 nM (values in parentheses) / inhibition at 0.3 µM: 300 nM compound; for inhibition at 0.3 µM: read-out: VEGF receptor kinase activity % Inh. @ 300 nM (values in parentheses)
T1 construct: VEGF receptor (human flk-1, KDR, VEGFR2) kinase domain; made in house; host or cells: baculovirus expression system
T1 sequence (P35968 834-1162 limits assumed): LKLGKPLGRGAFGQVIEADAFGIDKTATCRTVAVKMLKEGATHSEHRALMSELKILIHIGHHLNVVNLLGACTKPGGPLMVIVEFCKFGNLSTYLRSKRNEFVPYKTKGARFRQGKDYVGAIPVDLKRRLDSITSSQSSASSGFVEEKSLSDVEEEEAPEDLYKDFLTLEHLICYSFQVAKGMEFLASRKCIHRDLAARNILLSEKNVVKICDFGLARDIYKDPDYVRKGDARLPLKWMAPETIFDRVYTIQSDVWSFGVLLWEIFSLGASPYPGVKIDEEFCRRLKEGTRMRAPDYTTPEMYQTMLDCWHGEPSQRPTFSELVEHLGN
Description: Cyclic substituted fused pyrrolocarbazole and isoindolone compounds were examined for their inhibitory effects on the kinase activity of baculovirus-expressed VEGF receptor (human flk-1, KDR, VEGFR2) kinase domain using the procedure described for the trkA kinase ELISA assay described above. The kinase reaction mixture, consisting of 50 mM Hepes, pH 7.4, 40 μM ATP, 10 mM MnCl2, 0.1% BSA, 2% DMSO, and various concentrations of inhibitor, was transferred to PLC-γ/GST-coated plates. VEGFR kinase was added and the reaction was allowed to proceed for 15 min. at 37 C. Detection of phosphorylated product was accomplished by addition of antII-phosphotyrosine antibody (UBI). A secondary enzymeconjugated antibody was delivered to capture the antibody-phosphorylated PLC-γ/GST complex. The activity of the bound enzyme was measured via an amplified detection system (Gibco-BRL). Inhibition data were analyzed using the sigmoidal dose-response (variable slope) equation in GraphPad Prism.

[2] = biological target: T2, baculovirus-expressed human trkA cytoplasmic domain (Homo sapiens, UniProt P04629); assay: Inhibition of trkA tyrosine kinase activity (ELISA-based assay); assay type: biochemical; conditions: for IC50: 40 μM ATP
T2 construct: baculovirus-expressed human trkA cytoplasmic domain; made in house; host or cells: baculovirus expression system
T2 sequence (P04629 440-796 limits assumed): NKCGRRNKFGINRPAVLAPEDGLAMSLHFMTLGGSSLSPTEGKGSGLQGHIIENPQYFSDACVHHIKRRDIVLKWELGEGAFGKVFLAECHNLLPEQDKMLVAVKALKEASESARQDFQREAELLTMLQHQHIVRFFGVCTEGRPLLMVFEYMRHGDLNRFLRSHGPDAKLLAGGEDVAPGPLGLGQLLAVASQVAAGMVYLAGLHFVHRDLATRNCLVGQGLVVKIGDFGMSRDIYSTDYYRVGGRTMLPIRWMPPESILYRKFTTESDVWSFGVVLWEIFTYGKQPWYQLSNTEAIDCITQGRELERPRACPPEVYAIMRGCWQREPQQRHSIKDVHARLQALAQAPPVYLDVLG
Description: Selected cyclic substituted fused pyrrolocarbazole and isoindolone compounds were tested for their ability to inhibit the kinase activity of baculovirus-expressed human trkA cytoplasmic domain using an ELISA-based assay as previously described (Angeles et al., Anal. Biochem. 236: 49-55, 1996). Briefly, the 96-well microtiter plate was coated with substrate solution (recombinant human phospholipase C-γ1/glutathione S-transferase fusion protein (Rotin et al., EMBO J., 11: 559-567, 1992). Inhibition studies were performed in 100 μl assay mixtures containing 50 mM Hepes, pH 7.4, 40 μM ATP, 10 mM MnCl2, 0.1% BSA, 2% DMSO, and various concentrations of inhibitor. The reaction was initiated by addition of trkA kinase and allowed to proceed for 15 minutes at 37° C. An antibody to phosphotyrosine (UBI) was then added, followed by a secondary enzyme-conjugated antibody, alkaline phosphatase-labelled goat antII-mouse IgG (Bio-Rad). The activity of the bound enzyme was measured via an amplified detection system (Gibco-BRL). Inhibition data were analyzed using the sigimoidal dose-response (variable slope) equation in GraphPad Prism.

[3] = biological target: T3, trkA (NIH3T3 cells transfected with trkA) (Homo sapiens, UniProt P04629); assay: Inhibition of NGF-stimulated trk phosphorylation in a whole cell preparation; assay type: cell-based; conditions: NGF 10 ng/ml; for Cell Score @ 100 nM (percent decrease in trk protein band): 100 nM compound; for Cell Score @ 1 uM (percent decrease in trk protein band): 1 uM compound
T3 construct: expressed in transfected cells; host or cells: NIH3T3
T3 sequence (P04629 33-796, species assumed): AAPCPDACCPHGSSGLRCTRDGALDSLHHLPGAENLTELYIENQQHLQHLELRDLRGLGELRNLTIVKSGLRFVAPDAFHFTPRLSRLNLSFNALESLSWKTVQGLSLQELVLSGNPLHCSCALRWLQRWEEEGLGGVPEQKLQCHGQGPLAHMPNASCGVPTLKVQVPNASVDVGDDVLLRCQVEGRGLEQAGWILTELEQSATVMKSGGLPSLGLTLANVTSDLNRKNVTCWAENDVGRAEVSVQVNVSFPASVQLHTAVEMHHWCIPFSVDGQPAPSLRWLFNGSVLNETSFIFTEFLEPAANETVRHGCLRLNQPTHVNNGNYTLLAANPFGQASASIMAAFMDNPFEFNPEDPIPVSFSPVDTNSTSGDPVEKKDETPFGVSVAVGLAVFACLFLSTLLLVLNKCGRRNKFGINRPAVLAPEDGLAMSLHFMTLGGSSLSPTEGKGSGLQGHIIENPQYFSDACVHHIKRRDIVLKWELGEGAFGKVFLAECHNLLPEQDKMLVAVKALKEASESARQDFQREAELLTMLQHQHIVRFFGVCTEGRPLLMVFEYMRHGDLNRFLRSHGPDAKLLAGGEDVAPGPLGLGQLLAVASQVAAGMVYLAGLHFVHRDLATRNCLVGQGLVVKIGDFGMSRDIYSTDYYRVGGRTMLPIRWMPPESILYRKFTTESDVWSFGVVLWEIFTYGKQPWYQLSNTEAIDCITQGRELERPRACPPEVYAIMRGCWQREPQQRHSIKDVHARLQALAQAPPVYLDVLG
Description: NIH3T3 cells transfected with trkA were grown in 100 mm dishes. Subconfluent cells were serum-starved by replacing media with serum-free 0.05% BSA-DMEM containing compound (100 nM and 1 μM) or DMSO (added to controls) for one hour at 37° C. NGF (Harlan/Bioproducts for Science) was then added to the cells at a concentration of 10 ng/ml for 5 minutes. Cells were lysed in buffer containing detergent and protease inhibitors. Clarified cell lysates were normalized to protein using BCA method and immunoprecipitated with antII-trk antibody. Polyclonal antII-trk antibody was prepared against a peptide corresponding to the 14 amino acids at the carboxy terminus of trk (Martin-Zanca et al., Mol. Cell. Biol. 9: 24-33, 1989). The immune complexes were collected on Protein A Sepharose beads (Sigma Chem. Co., St. Lois, Mo.), separated by SDS polyacrylamide gel electrophoresis (SDS-PAGE), and transferred to a polyvinylidene difluoride (PVDF) membrane. The membrane was immunoblotted with antII-phosphotyrosine antibody (UBI), followed by incubation with horseradish peroxidase coupled goat antII-mouse IgG (Bio-Rad Laboratories, Hercules, Calif.). Phosphorylated proteins were visualized using ECL (Arnersham Life Science, Inc., Arlington Heights, Ill.). The area of the trk protein band was measured and compared to NGF-stimulated control. The inhibition scoring system used, based on percent decrease in trk protein band, was as follows: 0=no decrease; 1=1-25%; 2=26-49%; 3=50-75%; 4=76-100%.

SMILES: CCOC1COCC(C)(C2c3ccccc3-c3c4c(c5c([nH]c6ccccc65)c32)CNC4=O)O1 (centres unmarked) [II-51a]
- IC50 [1]: 170 nM
- inhibition at 0.3 µM ([2]; 300 nM compound, read-out: trkA kinase activity % Inh. @ 300 nM (values in parentheses)): 56%

SMILES: O=C1NCc2c1c1c(c3[nH]c4ccccc4c23)C(C2CSCC2O)c2ccccc2-1 (centres unmarked) [II-11]
- IC50 [2]: 139 nM

SMILES: O=C1NCc2c1c1c(c3c2c2ccccc2n3CC2CO2)Cc2ccccc2-1 (racemic) [II-01a]
- IC50 [2]: 92 nM

SMILES: CC1(C)OC2CC(O)(C3c4ccccc4-c4c5c(c6c([nH]c7ccccc76)c43)CNC5=O)OC2O1 (mixture of isomers) [II-48]
- trkA kinase activity % Inh. @ 300 nM (values in parentheses) ([2]; 300 nM compound): (46) %

SMILES: CCOCc1ccc2c(c1)c1c3c(c4c(c1n2CC1CO1)Cc1ccccc1-4)C(=O)NC3 (racemic) [II-58]
- trkA kinase activity % Inh. @ 300 nM (values in parentheses) ([2]; 300 nM compound): (23) %

SMILES: COCCOCOCC1(C2c3ccccc3-c3c4c(c5c([nH]c6ccccc65)c32)CNC4=O)CCC(=O)O1 (mixture of isomers) [II-31]
- IC50 [2]: 173 nM

SMILES: O=C1CCCC(C2c3ccccc3-c3c4c(c5c([nH]c6ccccc65)c32)CNC4=O)O1 (centres unmarked) [II-05]
- IC50 [2]: 130 nM

SMILES: O=C1NCc2c1c1c(c3[nH]c4ccccc4c23)C(C2CCCC2)c2ccccc2-1 (single isomer, unassigned) [II-59]
- trkA kinase activity % Inh. @ 300 nM (values in parentheses) ([2]; 300 nM compound): (10) %

SMILES: CCOC1CCC(CO)(C2c3cc(OC)ccc3-c3c4c(c5c([nH]c6ccccc65)c32)CNC4=O)O1 (single isomer, unassigned) [II-54]
- Cell Score @ 100 nM (percent decrease in trk protein band) [3]: 2 (2=26-49%)
- Cell Score @ 1 uM (percent decrease in trk protein band) [3]: 4 (4=76-100%)
- IC50 [1]: 122 nM
- IC50 [2]: 59 nM

SMILES: CCOC(=O)C1C(=O)CCC1C1c2ccccc2-c2c3c(c4c([nH]c5ccccc54)c21)C(=O)NC3=O (single isomer, unassigned) [II-56]
- trkA kinase activity % Inh. @ 300 nM (values in parentheses) ([2]; 300 nM compound): (12) %

SMILES: CC(=O)N1CCC(O)(C2c3ccccc3-c3c4c(c5c([nH]c6ccccc65)c32)CNC4=O)CC1 (centres unmarked) [II-24]
- trkA kinase activity % Inh. @ 300 nM (values in parentheses) ([2]; 300 nM compound): (34) %

SMILES: O=C1NCc2c1c1c(c3c2c2ccccc2n3C[C@@H]2CO2)Cc2ccccc2-1 [II-01b]
- IC50 [1]: 266 nM

SMILES: CCC1(C2(CO)CCCO2)c2ccccc2-c2c3c(c4c([nH]c5ccccc54)c21)CNC3=O (mixture of isomers) [II-34]
- VEGF receptor kinase activity % Inh. @ 300 nM (values in parentheses) [1]: (52) %
- trkA kinase activity % Inh. @ 300 nM (values in parentheses) ([2]; 300 nM compound): (38) %

SMILES: CC1(C2c3ccccc3-c3c4c(c5c([nH]c6ccccc65)c32)CNC4=O)CCCCO1 (centres unmarked) [II-12]
- IC50 [2]: 241 nM

SMILES: O=C1NCc2c1c1c(c3[nH]c4ccccc4c23)C(C2CCOC2=O)c2ccccc2-1 (single isomer, unassigned) [II-60]
- VEGF receptor kinase activity % Inh. @ 300 nM (values in parentheses) [1]: (45) %

SMILES: CCOC1COCC(C)(C2c3ccccc3-c3c4c(c5c([nH]c6ccccc65)c32)CNC4=O)O1 (single isomer, unassigned) [II-51d]
- VEGF receptor kinase activity % Inh. @ 300 nM (values in parentheses) ([1]; 0.3 µM): (48) %
- trkA kinase activity % Inh. @ 300 nM (values in parentheses) ([2]; 300 nM compound, 0.3 µM): (58) %

SMILES: O=C1CCC(C2c3ccccc3-c3c4c(c5c([nH]c6ccccc65)c32)CNC4=O)O1 (centres unmarked) [II-06]
- Cell Score @ 100 nM (percent decrease in trk protein band) [3]: 1 (1=1-25%)
- Cell Score @ 1 uM (percent decrease in trk protein band) [3]: 2 (2=26-49%)
- inhibition at 0.3 µM [1]: 56%
- IC50 [2]: 90 nM

SMILES: O=C1NCc2c1c1c(c3c2c2ccccc2n3C[C@H]2CO2)Cc2ccccc2-1 [II-01c]
- IC50 [1]: 168 nM
- IC50 [2]: 163 nM

SMILES: O=C1NCc2c1c1c(c3[nH]c4ccccc4c23)C(C2(c3cccs3)CCCO2)c2ccccc2-1 (centres unmarked) [II-09]
- IC50 [2]: 134 nM

SMILES: O=C1NCc2c1c1c(c3[nH]c4ccccc4c23)C(C2OCCC2O)c2ccccc2-1 (mixture of isomers) [II-43]
- IC50 [2]: 110 nM

SMILES: C=C1COC(C)(C2c3ccccc3-c3c4c(c5c([nH]c6ccccc65)c32)CNC4=O)C1 (mixture of isomers) [II-25]
- trkA kinase activity % Inh. @ 300 nM (values in parentheses) ([2]; 300 nM compound): (27) %

SMILES: O=C1NCc2c1c1c(c3[nH]c4ccccc4c23)C(C2(O)CCC2)c2ccccc2-1 (centres unmarked) [II-18]
- trkA kinase activity % Inh. @ 300 nM (values in parentheses) ([2]; 300 nM compound): (45) %

SMILES: CCN1CCCC(O)(C2c3ccccc3-c3c4c(c5c([nH]c6ccccc65)c32)CNC4=O)C1 (mixture of isomers) [II-16]
- trkA kinase activity % Inh. @ 300 nM (values in parentheses) ([2]; 300 nM compound): (38) %

SMILES: CCOC1COCC(C)(C2c3ccccc3-c3c4c(c5c([nH]c6ccccc65)c32)CNC4=O)O1 (mixture of isomers) [II-51bc]
- VEGF receptor kinase activity % Inh. @ 300 nM (values in parentheses) ([1]; 0.3 µM): (62) %
- trkA kinase activity % Inh. @ 300 nM (values in parentheses) ([2]; 300 nM compound, 0.3 µM): (56) %

SMILES: CC1(C2c3ccccc3-c3c4c(c5c([nH]c6ccccc65)c32)CNC4=O)CCCO1 (single isomer, unassigned) [II-30a]
- inhibition at 0.3 µM [1]: 59%
- IC50 [2]: 214 nM

SMILES: CC1(C2c3ccccc3-c3c4c(c5c([nH]c6ccccc65)c32)CNC4=O)CCCO1 (single isomer, unassigned) [II-30b]
- trkA kinase activity % Inh. @ 300 nM (values in parentheses) ([2]; 300 nM compound): (32) %

Now from value to molecule:

- IC50 [2]: 54 nM
SMILES: CCOC1CCC(C2c3ccccc3-c3c4c(c5c([nH]c6ccccc65)c32)CNC4=O)O1 (centres unmarked) [II-40a]

- IC50 [1]: 1420 nM
- IC50 [2]: 59 nM
SMILES: CCOC1CCC(C2c3ccccc3-c3c4c(c5c([nH]c6ccccc65)c32)CNC4=O)O1 (centres unmarked) [II-40b]

- IC50 [1]: > 1000 nM
- IC50 [2]: 80 nM
SMILES: O=C1NCc2c1c1c(c3[nH]c4ccccc4c23)C(C2(CCl)CCCO2)c2ccccc2-1 (centres unmarked) [II-44]

- IC50 [2]: 186 nM
SMILES: O=C1NCc2c1c1c(c3[nH]c4ccccc4c23)C(C2CCCCO2)c2ccccc2-1 (centres unmarked) [II-13]

- IC50 [2]: 166 nM
SMILES: CC1(C2c3ccccc3-c3c4c(c5c([nH]c6ccccc65)c32)CNC4=O)CC(=O)CO1 (centres unmarked) [II-27]

- IC50 [2]: 138 nM
SMILES: C=CC1(C2c3ccccc3-c3c4c(c5c([nH]c6ccccc65)c32)CNC4=O)CCCO1 (centres unmarked) [II-28]

- IC50 [2]: 321 nM
SMILES: O=C1CCC(C2c3ccccc3-c3c4c(c5c([nH]c6ccccc65)c32)CNC4=O)=NN1 (centres unmarked) [II-49]

- IC50 [2]: 95 nM
SMILES: CC(=O)OCC1(C2c3ccccc3-c3c4c(c5c([nH]c6ccccc65)c32)CNC4=O)CCCO1 (centres unmarked) [II-22]

- IC50 [2]: 191 nM
SMILES: CC1(C2c3ccccc3-c3c4c(c5c([nH]c6ccccc65)c32)C(=O)NC4)CCCO1 (centres unmarked) [II-37]

- IC50 [2]: 113 nM
SMILES: O=C1NCc2c1c1c(c3[nH]c4ccccc4c23)C(C2(O)CCCCC2)c2ccccc2-1 (centres unmarked) [II-50]

- IC50 [1]: 380 nM
SMILES: O=C1NCc2c1c1c(c3c2c2cc(Br)ccc2n3CC2CO2)Cc2ccccc2-1 (racemic) [II-57]

- inhibition at 0.3 µM [1]: 46%
- IC50 [2]: 162 nM
SMILES: O=C1NCc2c1c1c(c3[nH]c4ccccc4c23)C(C2(CCCCl)CCCO2)c2ccccc2-1 (centres unmarked) [II-19]
